Patent publication US9447051B2, “Diaminopyrimidines and uses thereof” (AbbVie inc., priority 2012, dated 2016)

Tested on: RSV (Group A, Long Strain)
Experiment: Antiviral (RSV) assay: cytopathetic effect (CPE) protection assay in HEp-2 cells, MTT readout
Format: cell-based, human respiratory syncytial virus (RSV)
Settings: Table 1, 0.2 MOI RSV, 4 days incubation, protection from CPE
Method: HEp-2 cells and RSV (Group A, Long Strain) were obtained from the American Type Culture Collection (Manassas, Va.). A cytopathetic effect (CPE) protection assay was performed to determine the ability of a compound to protect the cells from viral infection and thus the CPE induced by viral infection. 96-well plates were first seeded with 3×10^3 HEp-2 cells per well in Dulbecco's modified Eagle's medium (DMEM) containing 10% fetal bovine serum (FBS). One day after the cells were seeded, they were preincubated with serial dilutions of compounds prepared in 100 μL assay medium (DMEM mixed with F12 medium at a 1:1 ratio, supplemented with 2% FBS and 1 mM sodium pyruvate) for 1 hour at 37° C. 100 μL of assay medium containing 0.2 multiplicity of infection (MOI) of RSV was then added to each well of cells. In addition to wells containing infected cells incubated with compounds, each plate also contained replicates of two kinds of controls: (1) Virus control contained cells infected with 0.2 MOI of RSV in assay medium, (2) Uninfected cell control contained cells incubated with assay medium only. After 4 days of incubation at 37° C., the viability of cells was assessed using MTT (Thiazolyl blue tetrazolium bromide, Sigma). A stock solution of MTT, at a concentration of 4 mg/mL in phosphate-buffered saline, was added to all wells at 25 μL per well. Plates were further incubated for 4 hours, and each well was then treated with 50 μL of a solution containing 20% sodium dodecyl sulfate (SDS) and 0.02 N HCl. After an overnight incubation, the plates were measured on a BioTek® microtiter plate reader at wavelengths of 570 nm and 650 nm. The MTT detection is based on the fact that viable (uninfected) cells can reduce the tetrazolium salts into colored formazan products, which can then be quantitated by spectrometry. […] Compounds were tested to determine both their antiviral and toxicity to determine their therapeutic window. Determination of the EC50 and TD50 of these active compounds were repeated one additional time to confirm the window.

[1] = human respiratory syncytial virus, HEp-2, 96 h

EC50 [1] | Structure (SMILES) | EC50
> 3000 nM | Cc1nc(NCc2ccc(F)cc2)nc(NC2CCCCC2)c1C [Example 9, N^4-cyclohexyl-N^2-(4-fluorobenzyl)-5,6-dimethylpyrimidine-2,4-diamine] | –
69 nM | Cc1nc(NCc2cccs2)nc(NC2CCCCC2)c1C [Example 22, N^4-cyclohexyl-5,6-dimethyl-N^2-(2-thienylmethyl)pyrimidine-2,4-diamine] | –
18 nM | Cc1nc(NCc2ccccn2)nc(NC2CCCCCC2)c1C [Example 45, N^4-cycloheptyl-5,6-dimethyl-N^2-(pyridin-2-ylmethyl)pyrimidine-2,4-diamine] | –
26 nM | Cc1cc(F)ccc1Nc1nc(NCc2ccccn2)nc(C)c1C [Example 75, N^4-(4-fluoro-2-methylphenyl)-5,6-dimethyl-N^2-(pyridin-2-ylmethyl)pyrimidine-2,4-diamine] | –
25 nM | Cc1nc(NCc2ccccn2)nc(Nc2cccc(F)c2C)c1C [Example 76, N^4-(3-fluoro-2-methylphenyl)-5,6-dimethyl-N^2-(pyridin-2-ylmethyl)pyrimidine-2,4-diamine] | –
– | Cc1nc(NCc2ccccn2)nc(NC2CCC(C)(O)CC2)c1C (stereo not drawn) [Example 37, cis-4-({5,6-dimethyl-2-[(pyridin-2-ylmethyl)amino]pyrimidin-4-yl}amino)-1-methylcyclohexanol] | 360 nM
190 nM | Cc1nc(NCc2ccccn2)nc(N[C@H]2CCCC[C@H]2CO)c1C (racemic) [Example 43, rac-[(1R,2S)-2-({5,6-dimethyl-2-[(pyridin-2-ylmethyl)amino]pyrimidin-4-yl}amino)cyclohexyl]methanol] | –
61 nM | Cc1ccnc(CNc2nc(C)c(C)c(NC3CCC(F)(F)CC3)n2)c1 [Example 28, N^4-(4,4-difluorocyclohexyl)-5,6-dimethyl-N^2-[(4-methylpyridin-2-yl)methyl]pyrimidine-2,4-diamine] | –
> 3400 nM | COc1cccc(CNc2nc(C)c(C)c(NC3CCCCC3)n2)c1 [Example 25, N^4-cyclohexyl-N^2-(3-methoxybenzyl)-5,6-dimethylpyrimidine-2,4-diamine] | –
240 nM | Cc1nc(NCc2ccccc2)nc(NC2CCCCC2)c1C [Example 5, N^2-benzyl-N^4-cyclohexyl-5,6-dimethylpyrimidine-2,4-diamine] | –
> 5800 nM | Cc1cccnc1CNc1nc(C)c(C)c(NC2CCCCC2)n1 [Example 26, N^4-cyclohexyl-5,6-dimethyl-N^2-[(3-methylpyridin-2-yl)methyl]pyrimidine-2,4-diamine] | –
530 nM | Cc1nc(NCc2ccccn2)nc(NC2CCOc3ccccc32)c1C (centres unmarked) [Example 36, N^4-(3,4-dihydro-2H-chromen-4-yl)-5,6-dimethyl-N^2-(pyridin-2-ylmethyl)pyrimidine-2,4-diamine] | –
400 nM | Cc1nc(NCc2ccccn2)nc(Nc2ccc(OC(F)(F)F)cc2)c1C [Example 56, 5,6-dimethyl-N^2-(pyridin-2-ylmethyl)-N^4-[4-(trifluoromethoxy)phenyl]pyrimidine-2,4-diamine] | –
> 950 nM | Cc1nc(NCc2ccc(C(F)(F)F)cc2)nc(NC2CCCCC2)c1C [Example 12, N^4-cyclohexyl-5,6-dimethyl-N^2-[4-(trifluoromethyl)benzyl]pyrimidine-2,4-diamine] | –
> 8700 nM | Cc1nc(NCc2ccc(C(F)(F)F)cn2)nc(NC2CCCCC2)c1C [Example 20, N^4-cyclohexyl-5,6-dimethyl-N^2-{[5-(trifluoromethyl)pyridin-2-yl]methyl}pyrimidine-2,4-diamine] | –
480 nM | CCc1c(C)nc(NCc2ccccn2)nc1Nc1ccc(F)cc1 [Example 89, 5-ethyl-N^4-(4-fluorophenyl)-6-methyl-N^2-(pyridin-2-ylmethyl)pyrimidine-2,4-diamine] | –

EC50 [1] | Structure (SMILES) | EC50
40 nM | Cc1ccc(F)cc1Nc1nc(NCc2ccccn2)nc(C)c1C [Example 71, N^4-(5-fluoro-2-methylphenyl)-5,6-dimethyl-N^2-(pyridin-2-ylmethyl)pyrimidine-2,4-diamine] | –
1380 nM | Cc1nc(NCc2ccccn2)nc(NC2CCCC(O)C2)c1C (centres unmarked) [Example 85, 3-({5,6-dimethyl-2-[(pyridin-2-ylmethyl)amino]pyrimidin-4-yl}amino)cyclohexanol] | –
> 6100 nM | Cc1nc(NCc2cc(C(C)(C)C)ccn2)nc(NC2CCCCC2)c1C [Example 21, N^2-[(4-tert-butylpyridin-2-yl)methyl]-N^4-cyclohexyl-5,6-dimethylpyrimidine-2,4-diamine] | –
9 nM | Cc1cccc(C)c1Nc1nc(NCc2ccccn2)nc(C)c1C [Example 68, N^4-(2,6-dimethylphenyl)-5,6-dimethyl-N^2-(pyridin-2-ylmethyl)pyrimidine-2,4-diamine] | –
34 nM | Cc1ccnc(CNc2nc(C)c(C)c(NC3CCCCC3)n2)c1 [Example 17, N^4-cyclohexyl-5,6-dimethyl-N^2-[(4-methylpyridin-2-yl)methyl]pyrimidine-2,4-diamine] | –
63 nM | Cc1nc(NCc2ccccn2)nc(Nc2ccc(F)c(F)c2)c1C [Example 58, N^4-(3,4-difluorophenyl)-5,6-dimethyl-N^2-(pyridin-2-ylmethyl)pyrimidine-2,4-diamine] | –
310 nM | Cc1nc(NCc2ccccn2)nc(Nc2cccc(F)c2)c1C [Example 49, N^4-(3-fluorophenyl)-5,6-dimethyl-N^2-(pyridin-2-ylmethyl)pyrimidine-2,4-diamine] | –
33000 nM | Cc1nc(NCc2ccccn2)nc(NC2CCNCC2)c1C [Example 83, 5,6-dimethyl-N^4-(piperidin-4-yl)-N^2-(pyridin-2-ylmethyl)pyrimidine-2,4-diamine] | –
> 9600 nM | Cc1nc(NCc2ccccn2)nc(NC2CCC(C(F)(F)F)CC2)c1C (centres unmarked) [Example 31, 5,6-dimethyl-N^2-(pyridin-2-ylmethyl)-N^4-[4-(trifluoromethyl)cyclohexyl]pyrimidine-2,4-diamine] | –
> 1500 nM | Cc1nc(NCc2ccc(OC(F)(F)F)cc2)nc(NC2CCCCC2)c1C [Example 10, N^4-cyclohexyl-5,6-dimethyl-N^2-[4-(trifluoromethoxy)benzyl]pyrimidine-2,4-diamine] | –
310 nM | COc1ccnc(CNc2nc(C)c(C)c(NC3CCCCC3)n2)c1 [Example 18, N^4-cyclohexyl-N^2-[(4-methoxypyridin-2-yl)methyl]-5,6-dimethylpyrimidine-2,4-diamine] | –
100 nM | Cc1nc(NCc2ccccn2)nc(Nc2cc(F)ccc2F)c1C [Example 60, N^4-(2,5-difluorophenyl)-5,6-dimethyl-N^2-(pyridin-2-ylmethyl)pyrimidine-2,4-diamine] | –
2400 nM | Cc1nc(NCc2ccccn2)nc(Nc2nncs2)c1C [Example 94, 5,6-dimethyl-N^2-(pyridin-2-ylmethyl)-N^4-(1,3,4-thiadiazol-2-yl)pyrimidine-2,4-diamine] | –
1500 nM | Cc1ccc(CNc2nc(C)c(C)c(NC3CCCCC3)n2)nc1 [Example 86, N^4-cyclohexyl-5,6-dimethyl-N^2-[(5-methylpyridin-2-yl)methyl]pyrimidine-2,4-diamine] | –
> 3700 nM | Cc1nc(N[C@@H](C)c2ccccc2)nc(NC2CCCCC2)c1C [Example 16, N^4-cyclohexyl-5,6-dimethyl-N^2-[(1S)-1-phenylethyl]pyrimidine-2,4-diamine] | –
40 nM | Cc1nc(NCc2ccccn2)nc(Nc2ccc3c(c2)OCO3)c1C [Example 61, N^4-(1,3-benzodioxol-5-yl)-5,6-dimethyl-N^2-(pyridin-2-ylmethyl)pyrimidine-2,4-diamine] | –
